Results on 2 compounds are retold here after patent US20210356447A1, “EFFICACY EVALUATION METHOD OF DRUG FOR REVERSING TUMOR MULTIDRUG RESISTANCE” (JINAN UNIVERSITY, priority 2018, published 2021).

The assay relates to Liver cancer HepG2/ADR tumor-transplanted nude mouse model. The experiment in a line: Callback rate of serum and urine metabolic markers (targeted metabonomics, LC-MS/MS) in drug-resistant liver cancer nude mouse model. The format is in vivo, nude mice (nu/nu-BALB/c).
Where [1] appears, read: serum metabolic marker, 3 mg/kg, 0.2 ml tail vein injection once every three days, seven times, HepG2/ADR nude mice.
[2] abbreviates: urine metabolic marker, 3 mg/kg, 0.2 ml tail vein injection once every three days, seven times, HepG2/ADR nude mice.

Experimental: Liver cancer HepG2/ADR tumor-transplanted nude mouse models were firstly established and divided into four groups with 30 mice in each group, and after one week of successful establishment of the model, the mice were administered in different methods:
Metabolic markers were quantified by a targeted metabonomics technology, and an efficacy of a drug for reversing tumor multidrug resistance to be evaluated was evaluated by a concentration of each metabolic marker.
Cell transplanting: ten nude mice without thymus, including five male mice and five female mice, were selected, after 10-day adaptation period, 0.2 ml of HepG2/ADR cells (cell concentration: 6×10^7 cells/ml) were subcutaneously injected into each nude mouse with a 23G sterile needle, and in order to prevent tumor cells from being destroyed and matrix gel from being solidified in the period, the injection should be completed as soon as possible. Before injection, the needle was shaken left and right to form an expanded subcutaneous cyst (because if the injection was performed to a specific area by not shaking the needle, the mixture could form a large cell mass, and ineffective perfusion of nutrients in a core of the mass into the cells could result in subsequent growth defects), and when the needle was taken out, the injector was rotated to prevent leakage of cell sap. After subcutaneous injection, the matrix gel was irreversibly solidified to form a red bulge, about 10 days later, the solidified matrix gel was eliminated, and the tumor cells were successfully inoculated, and after a tumor mass grew for three weeks, nude mice with the tumor of the same size (about 7 mm in diameter) were selected. The subcutaneous tumor mass was taken out, a peripheral part of the tumor mass was divided into small tumor masses of 2×2×2 mm, after the nude mice (nu/nu-BALB/c, half male nude mice and half female nude mice at six weeks old, n=30) were anesthetized with isoflurane, the small tumor masses were subcutaneously implanted into shoulders of the nude mice to make the tumor masses of liver cancer model mice similar in size and shape, thus reducing experimental errors caused by different tumor mass sizes. After successful transplantation, growth statuses of the model nude mice were observed and recorded every day, weights of the nude mice were recorded every two days, and tumor sizes (length and width) were measured with a vernier caliper.
Healthy group: only normal saline was administrated to 30 healthy nude mice without being inoculated with any tumor cells once every three days for a total of seven times, with a dose of 0.2 ml each time by an administration method of tail vein injection.
Negative control group: only normal saline was administrated to 30 liver cancer HepG2/ADR tumor-transplanted nude mouse models once every three days for a total of seven times, with a dose of 0.2 ml each time by an administration method of tail vein injection.
Mass spectra of standard substances of a-linolenic acid, 3-methylglutaric acid, 17-hydroxystearic acid, xanthurenic acid, indole-2-carboxylic acid and 3-furoic acid were measured to determine mass-spectrometric detection conditions of each metabolic marker.
A series of linear concentration samples of the standard substance of each metabolic marker were respectively measured using the detection conditions above to obtain a relationship between a peak area of a characteristic fragment particle peak and a concentration of each metabolic marker, and linear regression was performed to obtain a linear regression equation.

As to `COc1cccc2c1C(=O)c1c(O)c3c(c(O)c1C2=O)C[C@@](O)(C(=O)CO)C[C@@H]3O[C@H]1C[C@H](N)[C@H](O)[C@H](C)O1` [Positive control group, doxorubicin], under setting [1], the “Callback rate, 3-methylglutaric acid” value is on record as 13.69% and the “Callback rate, A-linolenic acid” value is recorded as 17.56%. In addition, under setting [2], the “Callback rate, 3-furoic acid” value was 12.30%; the “Callback rate, Xanthurenic acid” value stood at 19.08%; the “Callback rate, indole-2-carboxylic acid” value was 12.73%.
For the compound `O=c1ccc2cc3ccoc3cc2o1` [psoralen], where the note is “result in words, comparison of groups in HepG2/ADR nude mice”, the “effect of reversing tumor drug resistance, judged from the callback rates” value is “really has the effect of reversing tumor drug resistance”.
